From PubChem BioAssay (NCI) come the findings set out here.

Test systems include COLO 205 colon; RXF 393 renal; SF-295 CNS; UACC-257 melanoma; MOLT-4 leukemia; NCI-H522 lung; SK-MEL-28 melanoma; IGROV1 ovarian; SNB-75 CNS; UACC-62 melanoma.
What all share (assay): NCI-60 cell line screen, 48 h

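A five-concentration, 48-hour dose response in 96-well plates underlies each endpoint, interpolated linearly between surrounding concentrations. At the GI50, growth is halved. The concentration for full growth arrest is given as TGI.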

With `NS(=O)(=O)c1ccc(/C=C/c2ccc(F)cc2)cc1`, the TGI in the assay with COLO 205 colon is over 100 µM; in the assay on RXF 393 renal, 46.8 µM; in the assay on SF-295 CNS, 78.6 µM; in the assay with UACC-257 melanoma, over 100 µM; with MOLT-4 leukemia, over 100 µM; with NCI-H522 lung it was 27.6 µM. Besides, the TGI in the assay with SK-MEL-28 melanoma is over 100 µM; in the assay with IGROV1 ovarian it was 61.9 µM; in the assay with SNB-75 CNS, over 100 µM. The figures for the GI50 with MOLT-4 leukemia, in the assay on NCI-H522 lung and in the assay on IGROV1 ovarian were 12.9 µM, 4.81 µM and 20.9 µM, respectively.

Turning to `CC(C)CNc1nc2ncnc(N)c2[nH]1`, the TGI with COLO 205 colon, in the assay with RXF 393 renal, with SF-295 CNS, in the assay with UACC-62 melanoma, in the assay on UACC-257 melanoma and in the assay with MOLT-4 leukemia was over 100 µM throughout. Further, the TGI in the assay on NCI-H522 lung, with SK-MEL-28 melanoma and with IGROV1 ovarian was over 100 µM throughout.

For the compound `CCCCC(=O)c1c(O)nc2sccn2c1=O`, the TGI in the assay with COLO 205 colon, in the assay with RXF 393 renal, in the assay on SF-295 CNS, in the assay with UACC-62 melanoma, in the assay on MOLT-4 leukemia and with NCI-H522 lung was over 10 µM each time. For the same compound, the TGI in the assay with SK-MEL-28 melanoma, with IGROV1 ovarian and with SNB-75 CNS was over 10 µM each time.

Consider `CC(=C(c1ccccc1)c1ccccc1)N1C(=O)CC(=O)N1C`, for which the TGI is over 100 µM in the assay on COLO 205 colon; 61.6 µM with RXF 393 renal; over 100 µM in the assay with SF-295 CNS; 83.6 µM in the assay on UACC-62 melanoma; over 100 µM in the assay with UACC-257 melanoma; 76.3 µM with MOLT-4 leukemia. The TGI in the assay on SK-MEL-28 melanoma is over 100 µM; with IGROV1 ovarian, 39 µM; in the assay on SNB-75 CNS, over 100 µM.

For the compound `CC(=O)OCC1OC(SC2=N/C(=C\c3ccc(Br)s3)C(=O)N2CN2CCOCC2)C(OC(C)=O)C(OC(C)=O)C1OC(C)=O` (stereo not drawn), the TGI in the assay with COLO 205 colon amounted to 37.6 µM; with SF-295 CNS it was 52 µM; in the assay with UACC-62 melanoma it was 32.1 µM; with UACC-257 melanoma it was 32.2 µM; in the assay on MOLT-4 leukemia, 52.8 µM; in the assay with NCI-H522 lung, 23.6 µM. The results for the TGI with SK-MEL-28 melanoma, with IGROV1 ovarian and in the assay on SNB-75 CNS were 32.9 µM, 46.9 µM and 68.3 µM, respectively.

In the case of `Nc1ccc(S(=O)(=O)c2ccc(NCN3C(=O)NC(=O)C(=O)C3=O)cc2)cc1`, the TGI in the assay on RXF 393 renal, in the assay with SF-295 CNS, with UACC-62 melanoma, with UACC-257 melanoma, in the assay with MOLT-4 leukemia and in the assay with NCI-H522 lung was over 100 µM in each case. Besides, the TGI in the assay with SK-MEL-28 melanoma and with IGROV1 ovarian was over 100 µM in each case.

For the compound `C[n+]1cccc2c(=O)c3ccccc3oc21`, the TGI in the assay on COLO 205 colon, with RXF 393 renal, with SF-295 CNS, in the assay with UACC-62 melanoma, in the assay on NCI-H522 lung and with SK-MEL-28 melanoma was over 100 µM throughout. Further, the TGI with IGROV1 ovarian and in the assay on SNB-75 CNS was over 100 µM throughout.

On to `C[N+](C)(C)c1ccc(C(N)C(=O)O)cc1` (stereo not drawn), for which the TGI in the assay on COLO 205 colon, in the assay with RXF 393 renal, in the assay on SF-295 CNS, with UACC-62 melanoma, with UACC-257 melanoma and in the assay on NCI-H522 lung was over 100 µM throughout. Besides, the TGI in the assay on SK-MEL-28 melanoma, in the assay with IGROV1 ovarian and in the assay on SNB-75 CNS was over 100 µM in each case.

For `CCNC(=S)N=Nc1c(O)[nH]c2ccc([N+](=O)[O-])cc12`, the TGI is over 100 µM in the assay with COLO 205 colon; 80.4 µM in the assay on RXF 393 renal; over 100 µM in the assay with SF-295 CNS; over 100 µM in the assay with UACC-62 melanoma; over 100 µM with UACC-257 melanoma; over 100 µM with MOLT-4 leukemia. The TGI in the assay on SK-MEL-28 melanoma and in the assay on IGROV1 ovarian was over 100 µM each time.

`O=c1cc(N2CCCC2)[nH]c(=O)n1Cc1ccccc1`: the TGI in the assay with COLO 205 colon, in the assay on SF-295 CNS, in the assay with UACC-257 melanoma, in the assay on MOLT-4 leukemia, in the assay with NCI-H522 lung and in the assay with SK-MEL-28 melanoma was over 100 µM in each case. In addition, the TGI with IGROV1 ovarian and in the assay with SNB-75 CNS was over 100 µM in each case.

As for `C[C@H](NC(=O)C(Cc1ccccc1)(Cc1ccc(O)cn1)NC(=O)c1ccccc1)c1ccccc1` (stereo partly drawn), the TGI is 35.1 µM in the assay with COLO 205 colon; 28.2 µM with RXF 393 renal; 29 µM in the assay with SF-295 CNS; 26.5 µM in the assay on UACC-62 melanoma; 34.5 µM in the assay with UACC-257 melanoma; 84.9 µM in the assay on MOLT-4 leukemia. For the same compound, the TGI with NCI-H522 lung turned out to be 35.4 µM; with SK-MEL-28 melanoma, 38.3 µM; in the assay on IGROV1 ovarian, 37 µM.

Consider `CCNCCCn1c2c(c3ccc(Cl)cc3c1=O)C(=O)c1cc(OC)cnc1-2`, for which the GI50 in the assay with COLO 205 colon was 0.146 µM; with RXF 393 renal, 1.03 µM; in the assay with UACC-62 melanoma it was 0.532 µM; with UACC-257 melanoma, 14.5 µM; with MOLT-4 leukemia, 0.0384 µM; in the assay on NCI-H522 lung, 0.263 µM. For the same compound, the figures for the GI50 in the assay with SK-MEL-28 melanoma and in the assay on SNB-75 CNS were 1.92 µM and 0.262 µM, respectively. Further, the TGI in the assay with COLO 205 colon is 1.57 µM; in the assay with RXF 393 renal, 2.43 µM; with UACC-62 melanoma, 21.4 µM; with UACC-257 melanoma it was 32.9 µM; in the assay with MOLT-4 leukemia, 1.62 µM; in the assay with NCI-H522 lung it was 24.5 µM. For the same compound, the TGI in the assay on SK-MEL-28 melanoma came to 4.54 µM; in the assay with SNB-75 CNS, 1.64 µM.

Take `Cc1ccc(OCC2OC(n3cnc4nc(N)nc(Cl)c43)CC2Oc2ccc(C)cc2)cc1` (stereo not drawn): the TGI in the assay on COLO 205 colon is 36.4 µM; with SF-295 CNS, 84.1 µM; in the assay with UACC-62 melanoma, over 100 µM; in the assay with UACC-257 melanoma it was over 100 µM; with MOLT-4 leukemia it was 52.7 µM; with NCI-H522 lung, 47.8 µM. The values for the TGI with SK-MEL-28 melanoma, with IGROV1 ovarian and in the assay with SNB-75 CNS were over 100 µM, 44.8 µM and 30.4 µM, respectively.
